This assay deals with T1, Kras and SOS1 (biotin-tagged human Kras loaded with GDP, His-tagged human SOS1) (Homo sapiens, UniProt P01116, G12D).
T1 construct: made in house; host or cells: E. coli (stated for Kras only)
Nature of the assay: Protein-protein interaction inhibition between Kras and SOS1 (KrasGl2D-SOS PPI) using AlphaScreen. As to conditions: AlphaScreen; biotin-tagged human Kras loaded with GDP, His-tagged human SOS1; read-out: KRAS G12D-SOS PPI IC50. The assay is classed as binding. A digest of the protocol: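 Donor beads (nickel) hold His-SOS1; acceptor beads (streptavidin) hold biotin-Kras bound to GDP. Signal measured at 520-620 nm following 680 nm excitation.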
For orientation: Bead proximity is the source of the signal in Alpha formats.

This note sets out measurements from US12371454B2, “Cyclic peptide compound having Kras inhibitory action” (priority 2019, dated 2025).

Starred links: 1 amine or outer side, 2 acyl side, 3 side chain; linkers in the order of their positions; H or OH if unused. Positions of bridges follow the written chain, without caps; N, C: chain ends. Non-standard residues stand in square brackets, D forms with d. Residues, ends and D or L forms follow the SMILES beside them. *: point of attachment. hPhe(3,5-F2-4-CF3) = N[C@@H](CCc1cc(F)c(C(F)(F)F)c(F)c1)C(=O)O; hPhe(3-Cl-4-CF3) = N[C@@H](CCc1ccc(C(F)(F)F)c(Cl)c1)C(=O)O; NMePhe(4-CF3) = CN[C@@H](Cc1ccc(C(F)(F)F)cc1)C(=O)O; Piperazinyl(4-(3-oxetanyl)) = C1OCC1N1CCN(*)CC1; 3Oxa8azabicyclo(3.2.1)octane = C1CC2COCC1N2*; NEtPhe(4-Me) = CCN[C@@H](Cc1ccc(C)cc1)C(=O)O; NMeAbu(4,4,4-F3) = CN[C@@H](CC(F)(F)F)C(=O)O; NMePhe(4-Cl) = CN[C@@H](Cc1ccc(Cl)cc1)C(=O)O; X55 = C[C@@](Cc1cccc(I)c1)(N[*:1])C(=O)[*:2]; X77 = O=C([C@H](Cc1cc(Br)ccc1Cl)N[*:1])[*:2]; X18 = Cc1ccc(Br)cc1C[C@H](N[*:1])C(=O)[*:2]; Phe(2,6-F2) = N[C@@H](Cc1c(F)cccc1F)C(=O)O; X20 = O=C([C@H](Cc1ccc(Br)s1)N[*:1])[*:2]; NMeGly(cPent) = CN[C@H](C(=O)O)C1CCCC1; Phe(3-I) = N[C@@H](Cc1cccc(I)c1)C(=O)O; Pro(4,4-F2) = O=C(O)[C@@H]1CC(F)(F)CN1; NMeY = CN[C@@H](Cc1ccc(O)cc1)C(=O)O; NMeCha = CN[C@@H](CC1CCCCC1)C(=O)O; NMeChg = CN[C@H](C(=O)O)C1CCCCC1; NMeF = CN[C@@H](Cc1ccccc1)C(=O)O; NMeI = CC[C@H](C)[C@H](NC)C(=O)O; NMeD = CN[C@@H](CC(=O)O)C(=O)O; NMeL = CN[C@@H](CC(C)C)C(=O)O; d(β3hP) = O=C(O)C[C@H]1CCCN1; NMeAbu = CC[C@H](NC)C(=O)O; Morpholide = C1CN(*)CCO1; NMeA = CN[C@@H](C)C(=O)O; NMeAib = CNC(C)(C)C(=O)O; Nle = CCCC[C@H](N)C(=O)O; Piperidide = C1CCN(*)CC1; Pra = C#CC[C@H](N)C(=O)O; Pyrrolidide = C1CCN(*)C1; Ac5c = NC1(C(=O)O)CCCC1; Aze = O=C(O)[C@@H]1CCN1; Ac4c = NC1(C(=O)O)CCC1; Sar = CNCC(=O)O

T1 sequence (P01116 1-188 isoform P01116-2 G12D): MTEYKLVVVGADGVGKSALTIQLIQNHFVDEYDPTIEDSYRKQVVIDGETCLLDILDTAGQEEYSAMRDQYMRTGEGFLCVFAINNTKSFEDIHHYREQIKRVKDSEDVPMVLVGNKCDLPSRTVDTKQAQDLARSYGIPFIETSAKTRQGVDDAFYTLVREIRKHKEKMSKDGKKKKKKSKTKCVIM

On to `C#CC[C@@H]1NC(=O)[C@H](Cc2cccc(I)c2)NC(=O)CN(C)C(=O)[C@H](Cc2ccccc2)N(C)C(=O)CN(C)C(=O)CN(C)C(=O)[C@H]([C@@H](C)CC)NC(=O)[C@H](CC(C)C)N(C)C(=O)C[C@@H](C(=O)N2CCCCC2)N(C)C(=O)[C@H](CC(C)C)NC(=O)C(C)(C)N(C)C1=O` [Compound 1184] ([NMeL]I[Sar][Sar][NMeF][Sar][Phe(3-I)][Pra][NMeAib]L[NMeD]-Piperidide; lactam N-11), for which the IC50 turned out to be 130 nM.
As for `CC[C@H](C)[C@@H]1NC(=O)[C@H](CC(C)C)N(C)C(=O)C[C@H]2CCCN2C(=O)[C@H](C2CCCCC2)N(C)C(=O)C2(CCCC2)NC(=O)[C@@H]2CCCN2C(=O)[C@H](CCc2ccc(C(F)(F)F)c(Cl)c2)NC(=O)CN(C)C(=O)[C@H](CC2CCCCC2)N(C)C(=O)CN(C)C(=O)CN(C)C1=O` [Compound 1185] (cyclo([Ac5c][NMeChg][d(β3hP)][NMeL]I[Sar][Sar][NMeCha][Sar][hPhe(3-Cl-4-CF3)]P)), the IC50 came to 11 nM.
Under `CC[C@H](C)[C@@H]1NC(=O)[C@H](CC(C)C)N(C)C(=O)C[C@@H](C(=O)N2CCCCC2)N(C)C(=O)[C@H](C2CCCCC2)N(C)C(=O)C2(CCCC2)NC(=O)[C@@H]2CCCN2C(=O)[C@H](CCc2ccc(C(F)(F)F)c(Cl)c2)NC(=O)CN(C)C(=O)[C@H](CC2CCCCC2)N(C)C(=O)[C@H](C)N(C)C(=O)CN(C)C1=O` [Compound 1186] ([NMeL]I[Sar][NMeA][NMeCha][Sar][hPhe(3-Cl-4-CF3)]P[Ac5c][NMeChg][NMeD]-Piperidide; lactam N-11) stands 8.6 nM.
As to `CCCC[C@@H]1NC(=O)[C@H](Cc2c(F)cccc2F)NC(=O)CN(C)C(=O)[C@H](Cc2ccc(OC)cc2)N(C)C(=O)[C@@H]2CCN2C(=O)[C@H](C)N(C)C(=O)[C@H]([C@@H](C)CC)NC(=O)[C@H](CC)N(C)C(=O)C[C@@H](C(=O)N2CCCCC2)N(C)C(=O)[C@H](CC(C)C)NC(=O)C(C)(C)N(C)C1=O` [Compound 1187] ([NMeAbu]I[NMeA][Aze][NMeY](Me)[Sar][Phe(2,6-F2)][Nle][NMeAib]L[NMeD]-Piperidide; lactam N-11), the IC50 is 99 nM.
On to `CC[C@H](C)[C@@H]1NC(=O)[C@H](CC(C)C)N(C)C(=O)C[C@@H](C(=O)N2CCN(C3COC3)CC2)NC(=O)[C@H]([C@@H](C)CC)N(C)C(=O)C2(CCCC2)NC(=O)[C@@H]2CCCN2C(=O)[C@H](CCc2ccc(C(F)(F)F)c(Cl)c2)NC(=O)CN(C)C(=O)[C@H](CC2CCCCC2)N(C)C(=O)CN(C)C(=O)CN(C)C1=O` [Compound 1191] ([NMeL]I[Sar][Sar][NMeCha][Sar][hPhe(3-Cl-4-CF3)]P[Ac5c][NMeI]D-{Piperazinyl(4-(3-oxetanyl))}; lactam N-11), for which the IC50 stood at 6.7 nM.
Under `CC[C@H](C)[C@@H]1NC(=O)[C@H](CC(C)C)N(C)C(=O)C[C@@H](C(=O)N2CCCC2)N(C)C(=O)[C@H](C2CCCCC2)N(C)C(=O)C2(CCC2)NC(=O)[C@@H]2CC(F)(F)CN2C(=O)[C@H](CCc2cc(F)c(C(F)(F)F)c(F)c2)NC(=O)CN(C)C(=O)[C@H](CC2CCCCC2)N(C)C(=O)CN(C)C(=O)CN(C)C1=O` [Compound 1192] ([NMeL]I[Sar][Sar][NMeCha][Sar][hPhe(3,5-F2-4-CF3)][Pro(4,4-F2)][Ac4c][NMeChg][NMeD]-Pyrrolidide; lactam N-11) stands 0.39 nM; under `CC[C@H](C)[C@@H]1NC(=O)[C@H](CC(C)C)N(C)C(=O)C[C@@H](C(=O)N2CCOCC2)N(C)C(=O)[C@H](C2CCCCC2)N(C)C(=O)C2(CCCC2)NC(=O)[C@@H]2CC(F)(F)CN2C(=O)[C@H](CCc2ccc(C(F)(F)F)c(Cl)c2)NC(=O)CN(C)C(=O)[C@H](CC2CCCCC2)N(C)C(=O)CN(C)C(=O)CN(C)C1=O` [Compound 1194] ([NMeL]I[Sar][Sar][NMeCha][Sar][hPhe(3-Cl-4-CF3)][Pro(4,4-F2)][Ac5c][NMeChg][NMeD]-Morpholide; lactam N-11), 0.52 nM.
Under `CCCC[C@@H]1NC(=O)[C@H](Cc2cc(Br)ccc2C)NC(=O)CN(C)C(=O)[C@H](Cc2ccc(OC)cc2)N(C)C(=O)[C@@H]2CCN2C(=O)[C@H](C)N(C)C(=O)[C@H]([C@@H](C)CC)NC(=O)[C@H](CC)N(C)C(=O)C[C@@H](C(=O)N2CCCCC2)N(C)C(=O)[C@H](CC(C)C)NC(=O)C(C)(C)N(C)C1=O` [Compound 1195] ([NMeAbu]I[NMeA][Aze][NMeY](Me)[Sar][X18][Nle][NMeAib]L[NMeD]-Piperidide; lactam N-11) stands 38 nM; under `CC[C@H](C)[C@@H]1NC(=O)[C@H](CC(F)(F)F)N(C)C(=O)C[C@@H](C(=O)N2CCCC2)N(C)C(=O)[C@H](C2CCCCC2)N(C)C(=O)C2(CCCC2)NC(=O)[C@@H]2CC(F)(F)CN2C(=O)[C@H](CCc2ccc(C(F)(F)F)c(Cl)c2)NC(=O)CN(C)C(=O)[C@H](Cc2ccc(C(F)(F)F)cc2)N(C)C(=O)CN(C)C(=O)CN(C)C1=O` [Compound 1196] ([NMeAbu(4,4,4-F3)]I[Sar][Sar][NMePhe(4-CF3)][Sar][hPhe(3-Cl-4-CF3)][Pro(4,4-F2)][Ac5c][NMeChg][NMeD]-Pyrrolidide; lactam N-11), 0.48 nM; under `CCCC[C@@H]1NC(=O)[C@](C)(Cc2cccc(I)c2)NC(=O)CN(C)C(=O)[C@H](Cc2ccc(Cl)cc2)N(C)C(=O)CN(C)C(=O)CN(C)C(=O)[C@H]([C@@H](C)CC)NC(=O)[C@H](CC(C)C)N(C)C(=O)C[C@@H](C(=O)N2CCCCC2)N(C)C(=O)[C@H](CC(C)C)NC(=O)C(C)(C)N(C)C1=O` [Compound 1202] ([NMeL]I[Sar][Sar][NMePhe(4-Cl)][Sar][X55][Nle][NMeAib]L[NMeD]-Piperidide; lactam N-11), 240 nM.
Under `CCCC[C@@H]1NC(=O)[C@H](Cc2cc(Br)ccc2Cl)NC(=O)CN(C)C(=O)[C@H](Cc2ccc(OC)cc2)N(C)C(=O)[C@@H]2CCN2C(=O)[C@H](C)N(C)C(=O)[C@H]([C@@H](C)CC)NC(=O)[C@H](CC)N(C)C(=O)C[C@@H](C(=O)N2CCCCC2)N(C)C(=O)[C@H](CC(C)C)NC(=O)C(C)(C)N(C)C1=O` [Compound 1212] ([NMeAbu]I[NMeA][Aze][NMeY](Me)[Sar][X77][Nle][NMeAib]L[NMeD]-Piperidide; lactam N-11) stands 120 nM.
As for `CC[C@H](C)[C@@H]1NC(=O)[C@H](CC(C)C)N(C)C(=O)C[C@@H](C(=O)N2C3CCC2COC3)N(C)C(=O)[C@H](C2CCCC2)N(C)C(=O)C2(CCCC2)NC(=O)[C@@H]2CCCN2C(=O)[C@H](CCc2cc(F)c(C(F)(F)F)c(F)c2)NC(=O)CN(C)C(=O)[C@H](Cc2ccc(C)cc2)N(CC)C(=O)[C@@H]2CCN2C(=O)[C@H](C)N(C)C1=O` [Compound 1215] ([NMeL]I[NMeA][Aze][NEtPhe(4-Me)][Sar][hPhe(3,5-F2-4-CF3)]P[Ac5c][NMeGly(cPent)][NMeD]-{3Oxa8azabicyclo(3.2.1)octane}; lactam N-11), the IC50 worked out at 1.8 nM.
Under `CCCC[C@@H]1NC(=O)[C@H](Cc2ccc(Br)s2)NC(=O)CN(C)C(=O)[C@H](Cc2ccc(Cl)cc2)N(C)C(=O)CN(C)C(=O)CN(C)C(=O)[C@H]([C@@H](C)CC)NC(=O)[C@H](CC(C)C)N(C)C(=O)C[C@@H](C(=O)N2CCCCC2)N(C)C(=O)[C@H](CC(C)C)NC(=O)C(C)(C)N(C)C1=O` [Compound 1216] ([NMeL]I[Sar][Sar][NMePhe(4-Cl)][Sar][X20][Nle][NMeAib]L[NMeD]-Piperidide; lactam N-11) stands 120 nM.

In general, IC50 refers to the concentration that inhibits the measured activity by half.
